Experimental data from the supplement of paper PMC10307832.

Legend:
Test in all cases: relative viability (nuclei count vs DMSO), 5 days (fraction); higher = more cells survive
[1] = test system: LCLC-103H
Summary of the method: (§1)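 Lung cancer cell lines, seeded in 1536-well plates, were treated the following day by pin tool with a single drug or with five library-drug doses (not always all listed) in √10 steps on top of a fixed anchor-drug dose. Cells were fixed and nuclei stained in one step after 5 days, and nuclei were counted. Relative viability is the nuclei count for treated wells divided by that for vehicle wells, reported as medians of duplicate plates.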

[2] = test system: EPLC-272H
Summary of the method: as §1

[3] = test system: NCI-H2405
Summary of the method: as §1

[4] = test system: NCI-H2126
Summary of the method: as §1

[5] = test system: EMC-BAC-2
Summary of the method: as §1

[6] = test system: SW 900
Summary of the method: as §1

[7] = test system: NCI-H3122
Summary of the method: as §1

[8] = test system: NCI-H1666
Summary of the method: as §1

[9] = test system: HCC-44
Summary of the method: as §1

[10] = test system: NCI-H23
Summary of the method: as §1

[11] = test system: SK-LU-1
Summary of the method: as §1

[12] = test system: NCI-H1975
Summary of the method: as §1

[13] = test system: LK-2
Summary of the method: as §1

[14] = test system: LU99A
Summary of the method: as §1

[15] = test system: SW 1573
Summary of the method: as §1

[16] = test system: RERF-LC-KJ
Summary of the method: as §1

[17] = test system: HCC-827
Summary of the method: as §1

[18] = test system: HCC-78
Summary of the method: as §1

[19] = test system: NCI-H1563
Summary of the method: as §1

[20] = test system: LXF-289
Summary of the method: as §1

[21] = test system: HCC-366
Summary of the method: as §1

[22] = test system: LOU-NH91
Summary of the method: as §1

[23] = test system: NCI-H2085
Summary of the method: as §1

[24] = test system: ChaGo-K-1
Summary of the method: as §1

C[C@@H]1CN(CC(=O)Nc2ccc3c(c2)Cc2cccc(-c4cc(=O)cc(N5CCOCC5)o4)c2S3)C[C@H](C)O1 + COc1cccc2cc(-c3nc([C@H]4CC[C@H](C(=O)O)CC4)n4ncnc(N)c34)[nH]c12 [OSI-027] (partner 0.5 µM)
relative viability ([1]; first compound 0.04 µM): 0.405
relative viability ([1]; first compound 0.1265 µM): 0.379
relative viability ([1]; first compound 0.4 µM): 0.387
relative viability ([1]; first compound 4 µM): 0.476
relative viability ([2]; first compound 0.04 µM): 0.279
relative viability ([2]; first compound 0.1265 µM): 0.334
relative viability ([2]; first compound 0.4 µM): 0.301
relative viability ([2]; first compound 4 µM): 0.304
relative viability ([3]; first compound 0.04 µM): 0.632
relative viability ([3]; first compound 0.1265 µM): 0.699
relative viability ([3]; first compound 0.4 µM): 0.528
relative viability ([3]; first compound 4 µM): 0.615
relative viability ([4]; first compound 0.04 µM): 0.708
relative viability ([4]; first compound 0.1265 µM): 0.579
relative viability ([4]; first compound 0.4 µM): 0.677
relative viability ([4]; first compound 4 µM): 0.647
relative viability ([5]; first compound 0.04 µM): 0.392
relative viability ([5]; first compound 0.1265 µM): 0.429
relative viability ([5]; first compound 0.4 µM): 0.385
relative viability ([5]; first compound 4 µM): 0.39
relative viability ([6]; first compound 0.04 µM): 0.455
relative viability ([6]; first compound 0.1265 µM): 0.573
relative viability ([6]; first compound 0.4 µM): 0.647
relative viability ([6]; first compound 4 µM): 0.45
relative viability ([7]; first compound 0.04 µM): 0.994
relative viability ([7]; first compound 0.1265 µM): 0.901
relative viability ([7]; first compound 0.4 µM): 0.206
relative viability ([7]; first compound 4 µM): 0.668
relative viability ([8]; first compound 0.04 µM): 0.932
relative viability ([8]; first compound 0.1265 µM): 0.87
relative viability ([8]; first compound 0.4 µM): 0.978
relative viability ([8]; first compound 4 µM): 0.838
relative viability ([9]; first compound 0.04 µM): 0.328
relative viability ([9]; first compound 0.1265 µM): 0.707
relative viability ([9]; first compound 0.4 µM): 0.335
relative viability ([9]; first compound 4 µM): 0.305
relative viability ([10]; first compound 0.04 µM): 0.732
relative viability ([10]; first compound 0.1265 µM): 0.572
relative viability ([10]; first compound 0.4 µM): 0.558
relative viability ([10]; first compound 4 µM): 0.426
relative viability ([11]; first compound 0.04 µM): 0.393
relative viability ([11]; first compound 0.1265 µM): 0.4
relative viability ([11]; first compound 0.4 µM): 0.386
relative viability ([11]; first compound 4 µM): 0.237
relative viability ([12]; first compound 0.04 µM): 0.74
relative viability ([12]; first compound 0.1265 µM): 0.602
relative viability ([12]; first compound 0.4 µM): 0.608
relative viability ([12]; first compound 4 µM): 0.448
relative viability ([13]; first compound 0.04 µM): 0.196
relative viability ([13]; first compound 0.1265 µM): 0.207
relative viability ([13]; first compound 0.4 µM): 0.162
relative viability ([13]; first compound 4 µM): 0.257
relative viability ([14]; first compound 0.04 µM): 0.282
relative viability ([14]; first compound 0.1265 µM): 0.34
relative viability ([14]; first compound 0.4 µM): 0.299
relative viability ([14]; first compound 4 µM): 0.374
relative viability ([15]; first compound 0.04 µM): 0.796
relative viability ([15]; first compound 0.1265 µM): 0.72
relative viability ([15]; first compound 0.4 µM): 0.465
relative viability ([15]; first compound 4 µM): 0.604
relative viability ([16]; first compound 0.04 µM): 0.757
relative viability ([16]; first compound 0.1265 µM): 0.583
relative viability ([16]; first compound 0.4 µM): 0.534
relative viability ([16]; first compound 4 µM): 0.49
relative viability ([17]; first compound 0.04 µM): 0.775
relative viability ([17]; first compound 0.1265 µM): 0.738
relative viability ([17]; first compound 0.4 µM): 0.509
relative viability ([17]; first compound 4 µM): 0.746
relative viability ([18]; first compound 0.04 µM): 0.372
relative viability ([18]; first compound 0.1265 µM): 0.358
relative viability ([18]; first compound 0.4 µM): 0.365
relative viability ([18]; first compound 4 µM): 0.384
relative viability ([19]; first compound 0.04 µM): 0.765
relative viability ([19]; first compound 0.1265 µM): 0.71
relative viability ([19]; first compound 0.4 µM): 0.689
relative viability ([19]; first compound 4 µM): 0.72
relative viability ([20]; first compound 0.04 µM): 0.779
relative viability ([20]; first compound 0.1265 µM): 0.829
relative viability ([20]; first compound 0.4 µM): 0.86
relative viability ([20]; first compound 4 µM): 0.777
relative viability ([21]; first compound 0.04 µM): 1.04
relative viability ([21]; first compound 0.1265 µM): 0.867
relative viability ([21]; first compound 0.4 µM): 0.648
relative viability ([21]; first compound 4 µM): 0.502
relative viability ([22]; first compound 0.04 µM): 0.746
relative viability ([22]; first compound 0.1265 µM): 0.711
relative viability ([22]; first compound 0.4 µM): 0.724
relative viability ([22]; first compound 4 µM): 0.7
relative viability ([23]; first compound 0.04 µM): 0.97
relative viability ([23]; first compound 0.1265 µM): 0.611
relative viability ([23]; first compound 0.4 µM): 0.476
relative viability ([23]; first compound 4 µM): 0.477
relative viability ([24]; first compound 0.04 µM): 0.525
relative viability ([24]; first compound 0.1265 µM): 0.593
relative viability ([24]; first compound 0.4 µM): 0.531
relative viability ([24]; first compound 4 µM): 0.533
